# Reference: patent US20240253033A1, “MICROFLUIDIC DETECTION SYSTEM WITH ADJUSTABLE FLOW CONTROL” (priority 2022, published 2024)
# Legend:
# E coli MG1655 = E coli MG1655 spiked in urine
# Procedure: To obtain spiked human samples, first human urine was centrifuged at 5000 rcf for 5 minutes to remove large particles. It was subsequently spiked with 5×10^5 CFU ml^−1 and mixed with a solution of Resazurin to a final concentration of 0.02%. No antibiotics were added for the control aliquots, 32 μg/mL Ampicillin was added for resistant aliquots and 16 μg/mL Kanamycin was added for susceptible aliquots. The aliquots were incubated at 37° C. different periods starting from 0 minutes incubation till 60 minutes with a time step of 5 minutes.
# According to the Infectious Diseases Society of America (IDSA), 105 CFU ml^−1 and 102 CFU ml^−1 were spiked in-vivo in urine, serum, and nasal swab of donors to simulate urinary tract infection, wound infection, and pneumonia by MRSA, respectively. Human urine was spiked with different concentrations of E. coli (FIG. 32D). As a control the healthy human biofluids were screened as received.
# S. agalactiae [1] = experiment: QolorAST minimum inhibitory concentration (MIC) test; format: cell-based, Streptococcus agalactiae
# Procedure: (§1) Acinetobacter baumannii, Enterococcus faecalis, Enterococcus faecium, Streptococcus agalactiae, Enterobacter cloacae, Klebsiella pneumoniae, Streptococcus pneumoniae, E coli MG1655, and E coli Trimethoprim resistant were streaked on LB miller agar overnight at 37° C. and resuspended in water aliquot. Next, the bacterial concentration was determined using optical density technique. Subsequently, aliquots of different concentrations were prepared for the antibiotic susceptibility testing experiments in CamHB growth media.
# (§2) 5×10^5 CFU ml^−1 Oxacillin-resistant S. aureus aliquots were prepared using resazurin/oxacillin solution using different concentrations of oxacillin antibiotic (16 μg/mL, 32 μg/mL, and 64 μg/mL). 5×10^5 CFU ml^−1 Cipro.
# (§3) A minimum inhibitory concentration (MIC) was performed to study the QolorAST broad applicability in detecting bacterial resistance profiles and ensuring timely and efficient antimicrobial theraby. […] The antibiotics cover major bacterial inhibition mechanisms as inhibition of protein synthesis, cell wall synthesis, and/or DNA synthesis.
# (§4) QolorAST exploited two methodologies: Manual MIC (MA-MIC) and support vector machine MIC (SVM-MIC). […] The SVM-MIC was carried out with a rbf kernel that was optimized and trained to predict the color change of the preclinical images using our library of bacteria images collected under different conditions including images where color is changed, color transitioning, and no color change. The SVM successfully classified the condition's bacteria-antibiotic in the concentration range studied.
# E. cloacae [2] = experiment: Conventional broth microdilution (BMD) MIC; format: cell-based, Enterobacter cloacae
# Procedure: (§5) For clinical MIC, bacteria were streaked on LB agar overnight and resuspended in a water aliquot. The aliquot was measured, and the bacteria concentration was adjusted to of 10^6 CFU ml^−1 in LB media. A 96 well plate with an antibiotic gradient from 128 μg/ml to 0.125 μg/ml in a 2-fold concentration dilution step was prepared with a positive control with no antibiotics. Next, the bacteria were introduced to each well of the 96 well plate for a final bacteria concentration of 5×10^5 CFU ml^−1. The well plates were cultured overnight the minimum inhibitory concentration was determined as the antibiotic concentration that didn't show any signs of bacterial growth.
# E. cloacae [3] = experiment: QolorAST minimum inhibitory concentration (MIC) test; format: cell-based, Enterobacter cloacae
# Procedure: as §1, §2, §3, §4
# S. agalactiae [4] = experiment: Conventional broth microdilution (BMD) MIC; format: cell-based, Streptococcus agalactiae
# Procedure: as §5
# A. baumannii [5] = experiment: QolorAST minimum inhibitory concentration (MIC) test; format: cell-based, Acinetobacter baumannii
# Procedure: as §1, §2, §3, §4
# K. pneumonia [6] = experiment: as above; format: cell-based, Klebsiella pneumoniae
# Procedure: as §1, §2, §3, §4
# S. pneumonia [7] = experiment: as above; format: cell-based, Streptococcus pneumoniae
# Procedure: as §1, §2, §3, §4
# K. pneumonia [8] = experiment: Conventional broth microdilution (BMD) MIC; format: cell-based, Klebsiella pneumoniae
# Procedure: as §5
# A. baumannii [9] = experiment: Conventional broth microdilution (BMD) MIC; format: cell-based, Acinetobacter baumannii
# Procedure: as §5
# S. pneumonia [10] = experiment: Conventional broth microdilution (BMD) MIC; format: cell-based, Streptococcus pneumoniae
# Procedure: as §5
molecule,measurement,setting,value
COc1cc(Cc2cnc(N)nc2N)cc(OC)c1OC [Trimethoprim],MIC,E coli MG1655,0.312 mL⁻¹
same,resistance profile based on the CLSI MIC cut off values,E coli MG1655,susceptible
Colistin,MA-MIC/SVM-MIC/MIC Category,S. agalactiae [1],R/R/R*
same,QolorAST MIC Manual (MA-MIC),S. agalactiae [1],128 µg/mL
same,QolorAST MIC SVM (SVM-MIC),S. agalactiae [1],> 128 µg/mL
same,resistance or susceptibility,S. agalactiae [1],resistant
same,Broth Microdilution MIC (MIC),E. cloacae [2],4
same,MA-MIC/SVM-MIC/MIC Category,E. cloacae [3],R/R/R
same,QolorAST MIC Manual (MA-MIC),E. cloacae [3],4 µg/mL
same,QolorAST MIC SVM (SVM-MIC),E. cloacae [3],4 µg/mL
same,Broth Microdilution MIC (MIC),S. agalactiae [4],128
same,MA-MIC/SVM-MIC/MIC Category,A. baumannii [5],R/R/R
same,QolorAST MIC Manual (MA-MIC),A. baumannii [5],8 µg/mL
same,QolorAST MIC SVM (SVM-MIC),A. baumannii [5],8 µg/mL
same,MIC,A. baumannii [5]; both manually and through SVM,8 µg/mL
same,MA-MIC/SVM-MIC/MIC Category,K. pneumonia [6],R/R/R
same,QolorAST MIC Manual (MA-MIC),K. pneumonia [6],8 µg/mL
same,QolorAST MIC SVM (SVM-MIC),K. pneumonia [6],8 µg/mL
same,MA-MIC/SVM-MIC/MIC Category,S. pneumonia [7],R/R/R*
same,QolorAST MIC Manual (MA-MIC),S. pneumonia [7],> 128 µg/mL
same,QolorAST MIC SVM (SVM-MIC),S. pneumonia [7],> 128 µg/mL
same,Broth Microdilution MIC (MIC),K. pneumonia [8],8
same,Broth Microdilution MIC (MIC),A. baumannii [9],8
same,Broth Microdilution MIC (MIC),S. pneumonia [10],>128
